{"source": "ChEMBL document CHEMBL4387741", "about": "“Optimization of novel reversible Bruton's tyrosine kinase inhibitors identified using Tethering-fragment-based screens” (Bioorg Med Chem, 2019)"}
{"target": "Tyrosine-protein kinase BTK (Homo sapiens, UniProt Q06187)", "sequence (Q06187 whole entry)": "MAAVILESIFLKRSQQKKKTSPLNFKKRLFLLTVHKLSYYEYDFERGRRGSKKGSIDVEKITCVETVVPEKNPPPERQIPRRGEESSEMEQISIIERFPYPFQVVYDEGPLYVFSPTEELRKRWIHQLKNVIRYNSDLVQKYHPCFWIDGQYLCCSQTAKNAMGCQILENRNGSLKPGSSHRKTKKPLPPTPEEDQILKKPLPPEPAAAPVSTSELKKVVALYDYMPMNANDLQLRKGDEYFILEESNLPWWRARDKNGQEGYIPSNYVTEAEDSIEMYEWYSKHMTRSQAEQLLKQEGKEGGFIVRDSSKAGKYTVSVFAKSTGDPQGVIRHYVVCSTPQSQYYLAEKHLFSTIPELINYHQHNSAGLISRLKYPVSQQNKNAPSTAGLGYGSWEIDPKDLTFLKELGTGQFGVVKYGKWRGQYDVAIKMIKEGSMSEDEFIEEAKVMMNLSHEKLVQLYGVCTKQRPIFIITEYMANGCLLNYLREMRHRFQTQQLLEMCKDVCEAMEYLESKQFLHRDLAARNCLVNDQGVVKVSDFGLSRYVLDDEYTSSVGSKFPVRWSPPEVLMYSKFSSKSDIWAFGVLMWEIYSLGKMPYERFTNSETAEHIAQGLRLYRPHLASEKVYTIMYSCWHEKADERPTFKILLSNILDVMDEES", "assay": "biochemical", "units": {"IC50": "µM"}, "description": "Reversible inhibition of recombinant full-length N-terminal 6-His-tagged human BTK expressed in baculovirus infected Sf21 insect cells using fluorescent-labeled polyGAT peptide as substrate incubated for 30 mins by TR-FRET assay"}
{"smiles": "O=S(=O)(Nc1cccc(C2CCCN(c3ncnc4[nH]ccc34)C2)c1)c1ccccc1", "note": "(stereo unspecified)", "IC50": 19}
{"smiles": "O=C(Nc1cccnc1)Nc1cccc(C2CCCN(c3ncnc4[nH]ccc34)C2)c1", "note": "(stereo unspecified)", "IC50": 3.2}
{"smiles": "O=C(Nc1cccc(C2CCCN(c3ncnc4[nH]ccc34)C2)c1)c1ccccc1", "note": "(stereo unspecified)", "IC50": 4.9}
{"smiles": "O=C(Nc1cccc(Cl)c1)Nc1cccc(C2CCCN(c3ncnc4[nH]ccc34)C2)c1", "note": "(stereo unspecified)", "IC50": 1.8}
{"smiles": "O=C(Nc1ccc(Cl)cc1)Nc1cccc(C2CCCN(c3ncnc4[nH]ccc34)C2)c1", "note": "(stereo unspecified)", "IC50": 2.3}
{"smiles": "O=C(Nc1ccc(F)cc1)Nc1cccc(C2CCCN(c3ncnc4[nH]ccc34)C2)c1", "note": "(stereo unspecified)", "IC50": 1.3}
{"smiles": "O=C(NCCCCCNc1ncnc2[nH]ccc12)Nc1ccccc1", "IC50": 16}
{"smiles": "O=C(Nc1cccc(C2CCCN(c3ncnc4[nH]ccc34)C2)c1)Nc1ccccn1", "note": "(stereo unspecified)", "IC50": 2.7}
{"smiles": "O=C(Nc1ccncc1)Nc1cccc(C2CCCN(c3ncnc4[nH]ccc34)C2)c1", "note": "(stereo unspecified)", "IC50": "> 10"}
{"smiles": "N#C/N=C(\\Nc1ccccc1)Nc1cccc(C2CCCN(c3ncnc4[nH]ccc34)C2)c1", "note": "(stereo unspecified)", "IC50": 68}
{"smiles": "O=C(NCCC#CCCNc1ncnc2[nH]ccc12)Nc1ccccc1", "IC50": 19}
{"smiles": "O=C(NCCCCCCNc1ncnc2[nH]ccc12)Nc1ccccc1", "IC50": 11}
{"smiles": "O=C(NCCCC1CCCN(c2ncnc3[nH]ccc23)C1)Nc1ccccc1", "note": "(racemic)", "IC50": 2}
{"smiles": "O=C(Nc1cccc(C2CCCN(c3ncnc4[nH]ccc34)C2)c1)Nc1ccccc1C1CCCC1", "note": "(racemic)", "IC50": 0.1}
{"smiles": "O=C(Nc1cccc(F)c1)Nc1cccc(C2CCCN(c3ncnc4[nH]ccc34)C2)c1", "note": "(stereo unspecified)", "IC50": 1.2}
{"smiles": "O=c1c(Nc2ccccc2)c(Nc2cccc(C3CCCN(c4ncnc5[nH]ccc45)C3)c2)c1=O", "note": "(stereo unspecified)", "IC50": 44}
{"smiles": "O=C(NCCc1cccc(Nc2ncnc3[nH]ccc23)c1)Nc1ccccc1", "IC50": 12}
{"smiles": "O=C(Nc1cccc(C2CCCN(c3ncnc4[nH]ccc34)C2)c1)Nc1ccccc1F", "note": "(stereo unspecified)", "IC50": 0.5}
{"smiles": "CC(C)(C)c1ccccc1NC(=O)Nc1cccc(C2CCCN(c3ncnc4[nH]ccc34)C2)c1", "note": "(racemic)", "IC50": 0.14}
{"smiles": "CC(C)(C#N)c1ccccc1NC(=O)Nc1cccc(C2CCCN(c3ncnc4[nH]ccc34)C2)c1", "note": "(racemic)", "IC50": "> 10"}
{"smiles": "O=C(Cc1ccccc1)Nc1cccc(C2CCCN(c3ncnc4[nH]ccc34)C2)c1", "note": "(stereo unspecified)", "IC50": 45}
{"smiles": "O=C(Nc1cccc(C2CCCN(c3ncnc4[nH]ccc34)C2)c1)Nc1ccccc1C(F)(F)F", "note": "(stereo unspecified)", "IC50": 0.46}
{"smiles": "O=C(Nc1cccc(C2CCCN(c3ncnc4[nH]ccc34)C2)c1)Nc1ccccc1N1CCCCC1", "note": "(racemic)", "IC50": 0.55}
{"smiles": "O=C(Nc1ccccc1)Nc1cccc(CCNc2ncnc3[nH]ccc23)c1", "IC50": 8.3}
{"smiles": "c1cc(Nc2nc3ccccc3[nH]2)cc(C2CCCN(c3ncnc4[nH]ccc34)C2)c1", "note": "(stereo unspecified)", "IC50": 4.1}
{"smiles": "O=C(Nc1cccc(C2CCCN(c3ncnc4[nH]ccc34)C2)c1)Nc1ccccc1C1CC1", "note": "(racemic)", "IC50": 0.2}
